Laboratory results from PubChem BioAssay AID1963840 (Molecular Pharmacology Branch, DTP, NCI, 2024).

Test system: 695427-040-R-J1-PDC complex spheroid viability
Test: Anticancer human tumor 695427-040-R-J1-PDC patient-derived colon adenocarcinoma cell line growth inhibition [POLQ]
Settings: for IC50: curve of first compound; for viability, T/C: stronger effect = lower value; active = viability on the fitted dose curve at most 10% of control; inactive = the rest
In short: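 PDC + HUVEC + MSC complex spheroids; POLQ inhibitors ± partner drugs; top conc. at/near clinical Cmax, else 10 microM (SN-38 1 microM), half-log dilutions; 37 degrees C, 5% CO2.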
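Note: spheroids exposed to compounds for seven days.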
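Throughout, for viability, T/C: 100% = DMSO vehicle control viability.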

COc1cccc(OCCCN)c1-c1cc(Nc2cnc(C#N)cn2)n[nH]1 + Nc1ccc(C#CCN(C(=O)Cc2ncc(C(F)(F)F)cc2C(F)(F)F)c2ccc(F)cc2)nn1
252 nM: IC50 (second compound 10 µM)
inactive: viability, T/C (second compound 0.0316 µM, first compound 0.00316 µM) 106% | viability, T/C (second compound 0.0316 µM, first compound 0.01 µM) 99.7% | viability, T/C (second compound 0.0316 µM, first compound 0.0316 µM) 94.4% | viability, T/C (second compound 0.0316 µM, first compound 0.1 µM) 82.8% | viability, T/C (second compound 0.0316 µM, first compound 0.316 µM) 68.8% | viability, T/C (second compound 0.0316 µM, first compound 1 µM) 53.5% | viability, T/C (second compound 0.1 µM, first compound 0.00316 µM) 115% | viability, T/C (second compound 0.1 µM, first compound 0.01 µM) 94.1% | viability, T/C (second compound 0.1 µM, first compound 0.0316 µM) 88.7% | viability, T/C (second compound 0.1 µM, first compound 0.1 µM) 85.7% | viability, T/C (second compound 0.1 µM, first compound 0.316 µM) 66.3% | viability, T/C (second compound 0.1 µM, first compound 1 µM) 51.9% | viability, T/C (second compound 0.316 µM, first compound 0.00316 µM) 104% | viability, T/C (second compound 0.316 µM, first compound 0.01 µM) 101% | viability, T/C (second compound 0.316 µM, first compound 0.0316 µM) 80.9% | viability, T/C (second compound 0.316 µM, first compound 0.1 µM) 82.1% | viability, T/C (second compound 0.316 µM, first compound 0.316 µM) 73.6% | viability, T/C (second compound 0.316 µM, first compound 1 µM) 49.7% | viability, T/C (second compound 1 µM, first compound 0.00316 µM) 105% | viability, T/C (second compound 1 µM, first compound 0.01 µM) 94.2% | viability, T/C (second compound 1 µM, first compound 0.0316 µM) 91.6% | viability, T/C (second compound 1 µM, first compound 0.1 µM) 85.4% | viability, T/C (second compound 1 µM, first compound 0.316 µM) 70.3% | viability, T/C (second compound 1 µM, first compound 1 µM) 50.7% | viability, T/C (second compound 3.16 µM, first compound 0.00316 µM) 95.3% | viability, T/C (second compound 3.16 µM, first compound 0.01 µM) 90.1% | viability, T/C (second compound 3.16 µM, first compound 0.0316 µM) 80% | viability, T/C (second compound 3.16 µM, first compound 0.1 µM) 69% | viability, T/C (second compound 3.16 µM, first compound 0.316 µM) 59.4% | viability, T/C (second compound 3.16 µM, first compound 1 µM) 50.2% | viability, T/C (second compound 10 µM, first compound 0.00316 µM) 95.8% | viability, T/C (second compound 10 µM, first compound 0.01 µM) 86.2% | viability, T/C (second compound 10 µM, first compound 0.0316 µM) 69.7% | viability, T/C (second compound 10 µM, first compound 0.1 µM) 59% | viability, T/C (second compound 10 µM, first compound 0.316 µM) 46.6% | viability, T/C (second compound 10 µM, first compound 1 µM) 44.3%
> 1000 nM: IC50 (second compound 0.0316 µM) | IC50 (second compound 0.1 µM) | IC50 (second compound 0.316 µM) | IC50 (second compound 1 µM) | IC50 (second compound 3.16 µM)
